The results in this text go back to ChEMBL document CHEMBL5523686, “Medicinal chemistry perspectives on the development of piperazine-containing HIV-1 inhibitors” (Bioorg Med Chem, 2024).

Series [1] relates to Human immunodeficiency virus 1. Description: Antiviral activity against wild type HIV1 IIIB infected in human MT4 cells assessed as inhibition of viral replication incubated for 3 to 5 days by MTT analysis. It counts as functional, organism-based. The settings on record: Human immunodeficiency virus 1, IIIB.
The nature of series [2]: Aqueous solubility of compound at pH 7. Type of series: physicochemical.
The subject of series [3] is Human immunodeficiency virus 1. As to the kind of experiment: Antiviral activity against HIV1 IIIB infected in human MT4 cells assessed as inhibition of viral replication incubated for 3 to 7 days by MTT analysis. It counts as functional, organism-based. The settings on record: Human immunodeficiency virus 1, IIIB.
Series [4] has as its system Human immunodeficiency virus 1. As to the kind of experiment: Antiviral activity against HIV1 Env pseudotyped virus infected in human HEK293T cells assessed as inhibition of viral growth incubated for 72 hrs by luciferase assay. The settings on record: Human immunodeficiency virus 1, HEK-293T. It counts as functional, organism-based.
In series [5] the test system is Human immunodeficiency virus 1. Description: Antiviral activity against HIV-1 IIIB infected in human MT4 cells assessed as inhibition of viral replication measured after 5 days by MTT spectrophotometric assay. It counts as functional, organism-based. Particulars: Human immunodeficiency virus 1, IIIB, MT4, 120 h. (Formazan colour is commonly taken as a measure of viable cells.)

Series [6] concerns Human immunodeficiency virus 2. Description: Antiviral activity against HIV-2 ROD infected in human MT4 cells assessed as inhibition of viral replication measured after 5 days by MTT spectrophotometric assay. It counts as functional, organism-based. The settings on record: Human immunodeficiency virus 2, ROD, MT4, 120 h.
Series [7] deals with Human immunodeficiency virus 1. Description: Antiviral activity against HIV-1 3B infected in human MT4 cells assessed as inhibition of viral replication incubated for 5 days by MTT assay. Type of series: functional, organism-based. Particulars: Human immunodeficiency virus 1, 3B, MT4, 120 h.

Values after ≈ are worked out from the molar mass of the structure shown.

Regarding `Cc1cc(C#N)cc(C)c1Oc1ccnc(Nc2ccc(N3CCN(S(C)(=O)=O)CC3)nc2)n1`, the EC50 in series [1] was determined as 2 nM.

For `Cc1cc(C#N)cc(C)c1Oc1ccnc(Nc2ccc(N3CCN(S(C)(=O)=O)CC3)c(C#N)c2)n1`, in series [1], the EC50 was 1 nM. For the same compound, the solubility in series [2] stood at 13.5 µg/mL (≈ 26.7 µM).

As to `Cn1c(N2CCNCC2)c(/N=N/c2ccc(Cl)cc2)c(N)nc1=O`, the EC50 in series [3] is over 3030 nM.

On to `COc1cnc(-n2cnc(C)n2)c2[nH]cc(C(=O)C(=O)N3CC(C)N(C(=O)c4ccccc4)C(C)C3)c12` (stereo not drawn), for which the IC50 in series [4] was 0.14 nM.

As to `O=C1Nc2ccc(Cl)cc2[C@@](C#CC2CC2)(C(F)(F)F)N1`, the half-inhibitory concentration (IC50) in series [5] came out at 2.22 µg/mL (≈ 7.05 µM); in series [6] it was 2.22 µg/mL (≈ 7.05 µM); in series [7] it was 813 nM.

What is called EC50 is the concentration giving half of the maximal effect. In general, solubility refers to how much of the substance goes into solution per volume. Higher therefore signals a readily soluble substance. The IC50 is the concentration that inhibits the measured activity by half.
